Experimental data taken from ChEMBL document CHEMBL4765470 (J Med Chem, 2021).
Non-standard residues stand in square brackets, D forms with d. Residues, ends and D or L forms follow the SMILES beside them. Bpa = N[C@@H](Cc1ccc(C(=O)c2ccccc2)cc1)C(=O)O; Tic = O=C(O)[C@@H]1Cc2ccccc2CN1; Cha = N[C@@H](CC1CCCCC1)C(=O)O; Nle = CCCC[C@H](N)C(=O)O; Dab = NCC[C@H](N)C(=O)O; Aib = CC(C)(N)C(=O)O

molecular target: T1, Apelin receptor (Homo sapiens, UniProt P35414); test: Displacement of [125I] [NIe75, Tyr77]Pyr-apelin-13 from YFP-tagged human APJ receptor expressed in HEK293 cell membranes incubated for 1 hr by gamma counting based Cheng-Prusoff equation analysis
T1 sequence (P35414 whole entry): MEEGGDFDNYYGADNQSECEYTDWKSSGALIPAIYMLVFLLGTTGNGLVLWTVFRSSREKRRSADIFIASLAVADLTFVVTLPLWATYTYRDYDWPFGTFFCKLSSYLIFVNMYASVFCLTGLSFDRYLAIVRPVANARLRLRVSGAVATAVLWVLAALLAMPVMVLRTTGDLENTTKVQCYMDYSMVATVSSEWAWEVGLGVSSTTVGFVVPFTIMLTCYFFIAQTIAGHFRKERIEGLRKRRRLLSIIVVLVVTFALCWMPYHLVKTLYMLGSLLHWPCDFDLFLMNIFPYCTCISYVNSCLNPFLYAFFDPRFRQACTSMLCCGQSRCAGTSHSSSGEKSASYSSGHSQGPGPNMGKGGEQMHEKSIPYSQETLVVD

SMILES | Ki [nM]
CCCC[C@H](N)C(=O)N1CCC[C@H]1C(=O)N[C@@H](CC(C)C)C(=O)N[C@@H](Cc1cnc[nH]1)C(=O)N[C@@H](CO)C(=O)N[C@@H](CCCNC(=N)N)C(=O)N[C@H](C(=O)N1CCC[C@H]1C(=O)N[C@@H](Cc1ccc(C(=O)c2ccccc2)cc1)C(=O)O)C(C)C (H-[Nle]PLHSRVP[Bpa]-OH) | 48
CCCC[C@H](N)C(=O)N1CCC[C@H]1C(=O)N[C@@H](CC(C)C)C(=O)N[C@@H](CCN)C(=O)N[C@@H](CO)C(=O)N[C@@H](CCCNC(=N)N)C(=O)N[C@H](C(=O)N1CCC[C@H]1C(=O)N[C@@H](Cc1ccccc1)C(=O)N1CCC[C@H]1C(=O)O)C(C)C (H-[Nle]PL[Dab]SRVPFP-OH) | > 10000
CCCC[C@H](N)C(=O)N1CCC[C@H]1C(=O)N[C@@H](Cc1ccccc1)C(=O)N[C@@H](Cc1cnc[nH]1)C(=O)N[C@@H](CO)C(=O)N[C@@H](CCCNC(=N)N)C(=O)N[C@H](C(=O)N1CCC[C@H]1C(=O)N[C@@H](Cc1ccccc1)C(=O)N1CCC[C@H]1C(=O)O)C(C)C (H-[Nle]PFHSRVPFP-OH) | 212
CCCC[C@H](N)C(=O)N1CCC[C@H]1C(=O)N[C@@H](CC(C)C)C(=O)N[C@@H](Cc1cnc[nH]1)C(=O)N[C@@H](CO)C(=O)N[C@@H](CCCNC(=N)N)C(=O)N[C@H](C(=O)N1CCC[C@H]1C(=O)N[C@@H](Cc1ccccc1)C(=O)N1Cc2ccccc2C[C@H]1C(=O)O)C(C)C (H-[Nle]PLHSRVPF[Tic]-OH) | 29
CCCC[C@H](N)C(=O)N1CCC[C@H]1C(=O)N[C@@H](CC(C)C)C(=O)N[C@@H](CC1CCCCC1)C(=O)N[C@@H](CO)C(=O)N[C@@H](CCCNC(=N)N)C(=O)N[C@H](C(=O)N1CCC[C@H]1C(=O)N[C@@H](Cc1ccccc1)C(=O)N1CCC[C@H]1C(=O)O)C(C)C (H-[Nle]PL[Cha]SRVPFP-OH) | 474
CCCC[C@H](N)C(=O)N1CCC[C@H]1C(=O)N[C@@H](CC(C)C)C(=O)N[C@@H](Cc1ccccc1)C(=O)N[C@@H](CO)C(=O)N[C@@H](CCCNC(=N)N)C(=O)N[C@H](C(=O)N1CCC[C@H]1C(=O)N[C@@H](Cc1ccccc1)C(=O)N1CCC[C@H]1C(=O)O)C(C)C (H-[Nle]PLFSRVPFP-OH) | > 10000
CCCC[C@H](N)C(=O)N1CCC[C@H]1C(=O)N[C@@H](CC(C)C)C(=O)N[C@@H](Cc1cnc[nH]1)C(=O)N[C@@H](CO)C(=O)N[C@@H](CCCNC(=N)N)C(=O)N[C@H](C(=O)NC(C)(C)C(=O)N[C@@H](Cc1ccccc1)C(=O)O)C(C)C (H-[Nle]PLHSRV[Aib]F-OH) | > 10000
CCCC[C@H](N)C(=O)N1CCC[C@H]1C(=O)N[C@@H](CC(C)C)C(=O)N[C@@H](Cc1c[nH]c2ccccc12)C(=O)N[C@@H](CO)C(=O)N[C@@H](CCCNC(=N)N)C(=O)N[C@H](C(=O)N1CCC[C@H]1C(=O)N[C@@H](Cc1ccccc1)C(=O)N1CCC[C@H]1C(=O)O)C(C)C (H-[Nle]PLWSRVPFP-OH) | 62
CCCC[C@H](N)C(=O)N1CCC[C@H]1C(=O)N[C@@H](CC(C)C)C(=O)N[C@@H](Cc1cnc[nH]1)C(=O)N[C@@H](CO)C(=O)N[C@@H](CCCNC(=N)N)C(=O)N[C@@H](C)C(=O)N1CCC[C@H]1C(=O)N[C@@H](Cc1ccccc1)C(=O)N1CCC[C@H]1C(=O)O (H-[Nle]PLHSRAPFP-OH) | 419
CCCC[C@H](N)C(=O)N1CCC[C@H]1C(=O)N[C@@H](CC(C)C)C(=O)N[C@@H](C)C(=O)N[C@@H](CO)C(=O)N[C@@H](CCCNC(=N)N)C(=O)N[C@H](C(=O)N1CCC[C@H]1C(=O)N[C@@H](Cc1ccccc1)C(=O)N1CCC[C@H]1C(=O)O)C(C)C (H-[Nle]PLASRVPFP-OH) | 1460
CCCC[C@H](N)C(=O)N1CCC[C@H]1C(=O)N[C@@H](CC(C)C)C(=O)N[C@@H](Cc1cnc[nH]1)C(=O)N[C@@H](CO)C(=O)N[C@@H](CCCNC(=N)N)C(=O)N[C@@H](CC(C)C)C(=O)N1CCC[C@H]1C(=O)N[C@@H](Cc1ccccc1)C(=O)N1CCC[C@H]1C(=O)O (H-[Nle]PLHSRLPFP-OH) | 45
